Data on 21 compounds can be found in ChEMBL document CHEMBL2028040, “Malaria Box”.

Each structure is given as a SMILES string.

Data set [1] is described as follows: MMV: Cytotoxicity against human fibroblasts (MRC-5) cells. As to conditions: MRC-5 cells (human fibroblasts).
Data set [2] concerns Plasmodium falciparum. The data set can be described thus: MMV: Inhibition of Plasmodium falciparum 3D7 (EC50). Type of data set: functional, organism-based.
The test system of data set [3] is Trypanosoma brucei brucei. The data set can be described thus: MMV: Inhibition of Trypanosoma brucei brucei (Squib 427) (HAT in vitro). The format is functional, organism-based.
In the next data set the test system is Trypanosoma cruzi. The data set can be described thus: MMV: Inhibition of Trypanosoma cruzi (Tulahuen C4 LacZ) (Chagas in vitro). The format is functional, organism-based.
In data set [4] the test system is Plasmodium falciparum. Put plainly: MMV: Inhibition of Plasmodium falciparum 3D7 at 5uM compound concentration. Type of data set: functional.
In data set [5] the test system is Trypanosoma brucei rhodesiense. The data set can be described thus: MMV: Inhibition of Trypanosoma brucei rhodesiense (STIB 900) (HAT in vitro). The format is functional, organism-based.
In another data set the test system is Leishmania infantum. The data set can be described thus: MMV: Inhibition of Leishmania infantum (MHOM/MA/BE/67) in vitro. Type of data set: functional, organism-based.

`COc1ccc(/C=C2/SC(=Nc3ccccc3)NC2=O)cc1`: the IC50 in data set [1] is 11.5 µM; in data set [3], over 32 µM; in the data set with Trypanosoma cruzi, over 32 µM; in data set [5], 16.3 µM; in the data set on Leishmania infantum it was over 32 µM. In the data set with Plasmodium falciparum [2], this compound gave an EC50 of 0.551 µM. The compound further had an inhibition at 5 µM with Plasmodium falciparum [4] of 71%.
Turning to `CCN1CCN(Cc2ccc(NC(=O)c3cc4ccc5cccnc5c4[nH]3)cc2)CC1`, the IC50 in data set [1] stood at 8.47 µM; in data set [3], 3.78 µM; in the data set on Trypanosoma cruzi, 8 µM; in data set [5], 0.928 µM; in the data set with Leishmania infantum it was 6.35 µM. Moreover, the EC50 in the data set with Plasmodium falciparum [2] is 0.361 µM. Further, at 5 µM the inhibition in the data set on Plasmodium falciparum [4] was 70%.
As for `O=C(NC1CCN(Cc2ccccc2)CC1)c1cc(-c2ccncc2)nc2ccc(Cl)cc12`, the IC50 in data set [1] is over 32 µM; in data set [3], 4.03 µM; in the data set with Trypanosoma cruzi, 4.59 µM; in data set [5] it was 3.51 µM; with Leishmania infantum it was 16.2 µM. Also, in the data set on Plasmodium falciparum [2], a half-maximal effect (EC50) was put at 1.02 µM. Further, in the data set on Plasmodium falciparum [4], at 5 µM the inhibition was 92%.
Turning to `Cc1[nH]c(-c2ccc(F)cc2)cc1C(=O)NC1CCN(Cc2ccccc2)CC1`, the IC50 is over 32 µM in data set [1]; 6.26 µM in data set [3]; over 32 µM in the data set with Trypanosoma cruzi; 4.03 µM in data set [5]; over 32 µM in the data set with Leishmania infantum. Also, a half-maximal response in the data set on Plasmodium falciparum [2] (EC50) required 0.771 µM. In the data set with Plasmodium falciparum [4], 5 µM produced 99% inhibition.
Regarding `CCOc1cc(Br)c(C(C)NC(=O)c2cccc(OC)c2)cc1OCC` (configuration not stated), the IC50 (in data set [1]; in data set [3]; in the data set with Trypanosoma cruzi; in data set [5]; with Leishmania infantum) was over 32 µM in each case. Also, the 50% effective concentration (EC50) in the data set with Plasmodium falciparum [2] stood at 1.43 µM. Moreover, testing at 5 µM with Plasmodium falciparum [4] gave an inhibition of 96%.
Take `O=C(NCCCN1CCC(N2CCCCC2)CC1)C1=Cc2cc(Br)ccc2OC1`: the IC50 in data set [1] turned out to be 12 µM; in data set [3], 0.805 µM; in the data set on Trypanosoma cruzi, 4.22 µM; in data set [5], 0.859 µM; in the data set with Leishmania infantum, 4.03 µM. In the data set with Plasmodium falciparum [2], this compound came in with an EC50 of 0.563 µM. Besides, the inhibition at 5 µM with Plasmodium falciparum [4] came out at 99%.
As to `Fc1ccc2[nH]c3c(NCCCN4CCOCC4)ncnc3c2c1`, the IC50 in data set [1] was over 32 µM; in data set [3], over 32 µM; with Trypanosoma cruzi, over 32 µM; in data set [5], 18.3 µM; in the data set with Leishmania infantum, over 32 µM. In the data set on Plasmodium falciparum [2], a half-maximal effect (EC50) was put at 0.345 µM. Also, the inhibition at 5 µM with Plasmodium falciparum [4] amounted to 98%.
For `Cc1ccc(Cl)cc1N1CCN(CCCNC(=O)C2CCN(c3nc4ccccc4[nH]3)CC2)CC1`, the IC50 in data set [1] turned out to be 14.5 µM; in data set [3] it was 1.31 µM; with Trypanosoma cruzi it was 3.74 µM; in data set [5], 1.01 µM; with Leishmania infantum, 4 µM. The same compound returned an EC50 in the data set on Plasmodium falciparum [2] of 1.33 µM. Further, in the data set on Plasmodium falciparum [4], the inhibition at 5 µM stood at 97%.
`O=C(Nc1ccc(CN2CCOCC2)cc1)c1ccc(-c2cc(Cl)ccc2Cl)o1`: the IC50 in data set [1] amounted to 17.4 µM; in data set [3] it was 14.9 µM; in the data set on Trypanosoma cruzi, 12.1 µM; in data set [5], 4.44 µM; with Leishmania infantum, 25.4 µM. The same compound showed an EC50 in the data set on Plasmodium falciparum [2] of 1.95 µM. This compound also gave an inhibition at 5 µM in the data set on Plasmodium falciparum [4] of 97%.
Regarding `CCOc1ccc(C2N(C)c3ccccc3N2C)cc1`, the IC50 in data set [1] was 15.5 µM; in data set [3], over 32 µM; with Trypanosoma cruzi it was 3.1 µM; in data set [5], over 32 µM; with Leishmania infantum, 25.4 µM. Also, in the data set on Plasmodium falciparum [2], the EC50 was 0.941 µM. In the data set on Plasmodium falciparum [4], this compound gave an inhibition at 5 µM of 72%.
Consider `O=C(Nc1ccc(-c2nc3ccccc3[nH]2)cc1)c1ccc(Cl)c(Cl)c1`, for which the IC50 (in data set [1]; in data set [3]; in the data set on Trypanosoma cruzi; in data set [5]; in the data set with Leishmania infantum) was over 32 µM each time. A half-maximal effect with Plasmodium falciparum [2] (EC50) was put at 0.838 µM. The compound further displayed an inhibition at 5 µM in the data set with Plasmodium falciparum [4] of 97%.
With `CCOc1cc(Cl)c(C(C)NC(=O)c2ccccc2)cc1OCC` (configuration not stated), the IC50 (in data set [1]; in data set [3]; in the data set with Trypanosoma cruzi; in data set [5]; in the data set on Leishmania infantum) was over 32 µM throughout. For the same compound, it took 1.37 µM to reach a half-maximal effect in the data set with Plasmodium falciparum [2] (EC50). The inhibition at 5 µM with Plasmodium falciparum [4] was 96%.
In the case of `COc1ccc(C2NCCc3c2[nH]c2ccccc32)cc1CN1CCN(c2ccc(F)cc2)CC1` (configuration not stated), the IC50 worked out at 3.94 µM in data set [1]; 2.78 µM in data set [3]; 2.75 µM in the data set on Trypanosoma cruzi; 0.246 µM in data set [5]; 1.19 µM with Leishmania infantum. For the same compound, in the data set with Plasmodium falciparum [2], a half-maximal response (EC50) required 0.934 µM. The compound further came in with an inhibition at 5 µM with Plasmodium falciparum [4] of 97%.
Consider `O=C(NC1CCN(Cc2ccccc2)CC1)c1cc(-c2cccnc2)nc2ccc(Cl)cc12`, for which the IC50 in data set [1] was over 32 µM; in data set [3] it was 14 µM; with Trypanosoma cruzi, over 32 µM; in data set [5] it was 3.83 µM; in the data set with Leishmania infantum it was over 32 µM. Moreover, a half-maximal effect in the data set with Plasmodium falciparum [2] (EC50) was put at 1.01 µM. Moreover, in the data set with Plasmodium falciparum [4], the inhibition at 5 µM amounted to 91%.
Consider `CCOc1ccc(-n2cc(-c3ccccc3)c3c(SCc4cc(C)ccc4C)ncnc32)cc1`, for which the IC50 in data set [1] is over 32 µM; in data set [3] it was over 32 µM; in the data set on Trypanosoma cruzi, over 32 µM; in data set [5], 25 µM; with Leishmania infantum, over 32 µM. Further, in the data set on Plasmodium falciparum [2], it took 1.71 µM to reach a half-maximal effect (EC50). In addition, the inhibition at 5 µM with Plasmodium falciparum [4] is 97%.
For the compound `COc1cccc(-c2nn(C)c3sc(C(=O)NCCN4CCN(c5ccccc5F)CC4)cc23)c1`, the IC50 in data set [1] was over 32 µM; in data set [3], 16 µM; in the data set with Trypanosoma cruzi, over 32 µM; in data set [5], 5.31 µM; in the data set on Leishmania infantum, over 32 µM. Moreover, the EC50 in the data set with Plasmodium falciparum [2] worked out at 1.3 µM. The inhibition at 5 µM with Plasmodium falciparum [4] came to 91%.
Take `COc1cc(-c2nc(-c3ccccc3)c(-c3ccccc3)[nH]2)cc(OC)c1O`: the IC50 is over 32 µM in data set [1]; 11.9 µM in data set [3]; 28.3 µM in the data set on Trypanosoma cruzi; 9.75 µM in data set [5]; 25.4 µM in the data set with Leishmania infantum. The compound also had an EC50 in the data set with Plasmodium falciparum [2] of 1.18 µM. For the same compound, the inhibition at 5 µM with Plasmodium falciparum [4] was 97%.
For the compound `O=C(Nc1ccc(N2CCN(Cc3ccccc3)CC2)cc1)c1cccs1`, the IC50 in data set [1] was over 32 µM; in data set [3], 14.6 µM; in the data set on Trypanosoma cruzi it was over 32 µM; in data set [5], 9.69 µM; in the data set with Leishmania infantum, over 32 µM. Also, the EC50 with Plasmodium falciparum [2] was determined as 1.07 µM. Also, the inhibition at 5 µM in the data set on Plasmodium falciparum [4] worked out at 59%.
Consider `O=C(Nc1ccc(-c2nc3cc4ccccc4cc3[nH]2)cc1)c1cccc(Br)c1`, for which the IC50 (in data set [1]; in data set [3]; in the data set with Trypanosoma cruzi; in data set [5]; in the data set with Leishmania infantum) was over 32 µM in each case. This compound yielded a concentration giving a half-maximal response (EC50) in the data set with Plasmodium falciparum [2] of 0.45 µM. In addition, the inhibition at 5 µM in the data set on Plasmodium falciparum [4] was 93%.
Consider `Cc1cc(C)c2nc(N3CCC(C(=O)NCCCN4CCC(N5CCCCC5)CC4)CC3)sc2c1`, for which the IC50 in data set [1] is 4.25 µM; in data set [3], 0.22 µM; in the data set with Trypanosoma cruzi, 0.85 µM; in data set [5], under 0.125 µM; in the data set with Leishmania infantum, 4.06 µM. This compound also registered an EC50 with Plasmodium falciparum [2] of 0.697 µM. In addition, 5 µM produced 98% inhibition in the data set on Plasmodium falciparum [4].
Take `COc1cc(CNCCc2ccc(Cl)cc2)cc(OC)c1O`: the concentration for half-maximal inhibition (IC50) was over 32 µM in data set [1]; 15 µM in data set [3]; over 32 µM with Trypanosoma cruzi; 12.1 µM in data set [5]; over 32 µM in the data set on Leishmania infantum. The same compound displayed an EC50 with Plasmodium falciparum [2] of 1.79 µM. The inhibition at 5 µM in the data set on Plasmodium falciparum [4] worked out at 97%.
